The values that follow come from BindingDB's records for patent US9539260 (Novartis AG, 2017).

Assay [1] concerns the target Phosphatidylinositol 4,5-bisphosphate 3-kinase catalytic subunit alpha isoform (Homo sapiens, UniProt P42336). Description: Inhibition Assay. As to conditions: 25 °C. The procedure: (§1) The final concentrations of ATP and phosphatidyl inositol in the assay are 5 μM and 6 μg/mL, respectively. […] The final concentrations of ATP and phosphatidyl inositol (PI) in the assay are 1 μM and 10 μg/mL, respectively.

Assay [2] has as its target T1, Phosphatidylinositol 4,5-bisphosphate 3-kinase catalytic subunit delta isoform (Homo sapiens, UniProt O00329).
T1 sequence (O00329 whole entry): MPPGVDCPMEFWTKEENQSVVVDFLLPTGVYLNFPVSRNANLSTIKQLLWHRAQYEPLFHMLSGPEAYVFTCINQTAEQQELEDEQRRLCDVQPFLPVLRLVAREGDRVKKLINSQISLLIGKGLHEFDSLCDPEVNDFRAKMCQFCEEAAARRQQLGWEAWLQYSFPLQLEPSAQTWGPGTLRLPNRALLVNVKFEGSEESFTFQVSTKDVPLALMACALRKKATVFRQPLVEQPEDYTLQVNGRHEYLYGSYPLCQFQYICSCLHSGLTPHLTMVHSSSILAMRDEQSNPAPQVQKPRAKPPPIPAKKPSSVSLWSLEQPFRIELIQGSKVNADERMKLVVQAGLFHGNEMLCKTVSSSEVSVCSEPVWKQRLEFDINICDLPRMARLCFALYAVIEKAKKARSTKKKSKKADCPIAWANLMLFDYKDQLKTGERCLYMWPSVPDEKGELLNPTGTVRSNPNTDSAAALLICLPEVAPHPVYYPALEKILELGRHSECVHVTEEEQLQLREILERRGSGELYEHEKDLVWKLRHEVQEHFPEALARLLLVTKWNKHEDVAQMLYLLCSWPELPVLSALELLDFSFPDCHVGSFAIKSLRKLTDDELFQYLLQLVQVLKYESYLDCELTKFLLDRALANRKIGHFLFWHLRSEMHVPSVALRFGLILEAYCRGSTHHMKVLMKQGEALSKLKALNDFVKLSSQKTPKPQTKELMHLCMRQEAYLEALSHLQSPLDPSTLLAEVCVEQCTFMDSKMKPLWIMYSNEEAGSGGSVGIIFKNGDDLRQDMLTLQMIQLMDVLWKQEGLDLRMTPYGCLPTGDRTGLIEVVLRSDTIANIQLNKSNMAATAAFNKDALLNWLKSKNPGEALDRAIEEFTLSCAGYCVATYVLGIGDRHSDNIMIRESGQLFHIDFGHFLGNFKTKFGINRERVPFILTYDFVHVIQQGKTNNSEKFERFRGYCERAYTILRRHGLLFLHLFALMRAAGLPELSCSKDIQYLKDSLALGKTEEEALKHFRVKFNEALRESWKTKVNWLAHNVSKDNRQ
Description: Inhibition Assay. As to conditions: 25 °C. As for the experimental part:
as §1

Each structure is given as a SMILES string. pIC50: −log10 of the molar value.

Phosphatidylinositol 4,5-bisphosphate 3-kinase catalytic subunit alpha isoform, sequence (P42336 whole entry, canonical isoform): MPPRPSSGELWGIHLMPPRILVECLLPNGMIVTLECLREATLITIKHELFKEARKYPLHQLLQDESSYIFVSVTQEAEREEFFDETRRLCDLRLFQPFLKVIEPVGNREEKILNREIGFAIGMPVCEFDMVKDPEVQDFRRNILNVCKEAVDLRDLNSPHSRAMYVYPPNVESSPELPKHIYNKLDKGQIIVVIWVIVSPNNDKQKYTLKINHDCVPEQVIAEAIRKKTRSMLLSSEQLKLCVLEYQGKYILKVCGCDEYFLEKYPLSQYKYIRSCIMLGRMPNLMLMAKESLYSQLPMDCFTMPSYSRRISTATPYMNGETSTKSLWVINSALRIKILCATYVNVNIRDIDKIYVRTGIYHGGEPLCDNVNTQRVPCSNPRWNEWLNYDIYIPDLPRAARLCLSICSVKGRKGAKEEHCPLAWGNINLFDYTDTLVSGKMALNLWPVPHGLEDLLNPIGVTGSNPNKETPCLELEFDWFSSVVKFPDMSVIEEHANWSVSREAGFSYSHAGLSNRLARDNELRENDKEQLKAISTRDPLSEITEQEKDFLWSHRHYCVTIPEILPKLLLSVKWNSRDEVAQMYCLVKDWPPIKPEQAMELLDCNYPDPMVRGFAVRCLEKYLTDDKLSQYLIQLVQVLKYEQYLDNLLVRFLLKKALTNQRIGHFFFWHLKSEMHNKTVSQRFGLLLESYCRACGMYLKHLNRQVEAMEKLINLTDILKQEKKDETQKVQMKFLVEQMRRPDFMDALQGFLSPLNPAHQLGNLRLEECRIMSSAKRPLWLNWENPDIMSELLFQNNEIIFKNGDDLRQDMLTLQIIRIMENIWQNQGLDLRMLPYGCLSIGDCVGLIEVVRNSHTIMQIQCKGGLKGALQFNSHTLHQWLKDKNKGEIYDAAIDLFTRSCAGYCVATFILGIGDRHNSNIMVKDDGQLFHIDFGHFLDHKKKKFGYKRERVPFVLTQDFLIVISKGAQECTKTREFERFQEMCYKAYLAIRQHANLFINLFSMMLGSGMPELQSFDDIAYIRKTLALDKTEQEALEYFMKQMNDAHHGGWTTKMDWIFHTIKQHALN

Consider `COc1ncc(N2CCOc3ccc(O[C@H]4CCN(C(=O)C5COCCO5)C4)cc32)cc1F` (some centres not stated) [US9539260, B115], for which the pIC50 in assay [1] is 6.33; in assay [2], 7.64.

Broadly, the pIC50 is the negative decadic logarithm of the IC50, by convention in mol/L. High values mean a small IC50, low ones a large IC50.
